# How the values were obtained:
# [1] = test system: Epac1-induced Rap1 activation in HEK293 cells; experiment: Epac1-induced Rap1 activation, Rap1-GTP pull-down in HEK293 cells; format: cell-based; conditions: 10 min
# Description: HEK293 cells were transfected with either pcDNA3 control vector or Epac1 (see FIG. 2A).
# HEK293 cells were transfected with Epac1 and 24 h after transfection, cells were preincubated or not with CE3F4 for 30 min and were then treated or not with Sp-007 (10 μM) for 10 min (see FIG. 2B).
# HEK293 cells overexpressing β1AR (Beta-1 adrenergic receptors) and transfected with Epac1 were pretreated or not with CE3F4 and stimulated or not with Iso (10 μM) for 10 min (see FIG. 2C).
# Amounts of Rap1-GTP were determined by pull-down assays (see Material and Methods). The bar graph represents the mean±S.E.M. of 5 (FIG. 2A, 2B) or 3 (FIG. 2C) independent experiments. Results are expressed as the percentage of unstimulated control cells.
# Ras and Rap1 pull-down experiments were performed using a GST fusion protein containing respectively the Ras binding domain of Raf1-RBD and the Rap1 binding domain of Ral-GDS as previously described (Métrich et al., 2008). Cells were starved for 1 h before stimulation in MEM free with penicillin-streptomycin (1%). After stimulation, cells were lysed in RIPA buffer (50 mM Tris-HCl, pH 7.5; 500 mM NaCl; 20 mM MgCl2; 0.5% deoxycholic acid; 0.1% SDS; 1% Triton X-100; 1 mM PMSF; protease and phosphatase inhibitors) and 500 μg of protein were incubated with either GST-Raf1-RBD (for Ras) or Ral-GDS (for Rap1) coupled to glutathione-Sepharose beads (Amersham Biosciences) for 1h at 4° C. Beads were then washed three times in washing buffer (50 mM Tris-HCl, pH 7.5; 150 mM NaCl, 20 mM MgCl2, 1% Triton X-100; 0.1 mM PMSF; protease and phosphatase inhibitors). Rap1-GTP or Ras samples and corresponding total lysates were separated on SDS-PAGE gels and transferred onto a polyvinylidene difluoride (PVDF) membrane (Amersham Pharmacia Biotech).
# [2] = test system: Epac1-induced H-Ras activation in rat neonatal cardiac myocytes; experiment: Epac1-induced H-Ras activation, H-Ras-GTP pull-down in rat neonatal cardiac myocytes; format: cell-based; conditions: rat neonatal cardiac myocytes transfected with Epac1; CE3F4 30 min; Sp-007 10 μM, 10 min; FIG. 3B
# Description: The effects of CE3F4 to prevent Epac1-induced H-Ras activation was determined by extraction of GTP-loaded H-Ras from cell lysates with the immobilized Ras-binding domain of Raf1.
# HEK293 cells (FIG. 3A) or rat neonatal cardiac myocytes (FIG. 3B) were transfected with Epac1. 24 h after transfection, cells were preincubated or not with CE3F4 for 30 min and were then treated or not with Sp-007 (10 μM) for 10 min. In FIG. 3C, HEK293 cells overexpressing β1-AR and transfected with Epac1 were pretreated or not with 20 μM of CE3F4 for 30 min and stimulated or not with Iso for 10 min. Amounts of H-Ras-GTP were determined by pull-down assays. The bar graph represents the mean±S.E.M. of 5 (FIG. 3A) or 2 (FIG. 3B, 3C) independent experiments. Results are expressed as the percentage of unstimulated control cells.
# Cardiac myocytes were isolated as previously described by Wollert and colleagues (1996). HEK293 cells stably expressing the β1-adrenergic receptor (β1-AR) was a gift of Dr. Shenoy (Duke University). HEK293 cells were maintained in MEM with FBS (Foetal Bovine Serum; 10%) and penicillin-streptomycin (1%). All media, sera and antibiotics used in cell culture were purchased from Invitrogen (Cergy Pontoise, France). […]
smiles,measurement,setting,value
CC1CCc2c(cc(Br)c(F)c2Br)N1C=O (racemic) [CE3F4],Effect on increase in amount of Rap1-GTP following Sp-007 treatment,"[1]; CE3F4 20 μM, 30 min preincubation, Sp-007 10 μM, HEK293 transfected with Epac1, FIG. 2B",prevented the increase
same,Effect on Epac1-induced Rap1 activation following β1-AR stimulation by isoprenaline,"[1]; Iso 10 μM, HEK293 overexpressing β1AR, transfected with Epac1, FIG. 2C",decreased
same,Amount of Ras-GTP induced by Sp-007,[2],decreased

# Reference: US10093627B2, “Tetrahydroquinoline derivatives and their use as Epac inhibitors” (Institut National de la Sante et de la Recherche Medicale …, priority 2012, dated 2018)
